TGI and GI50 data for 26 compounds are collected here from PubChem BioAssay (NCI).

Where “and” joins values, the source holds several entries; their conditions need not be identical. Equal values may be shown once.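 Test compounds were applied to cells in 96-well plates for 48 hours at 5 doses. GI50 is the concentration that inhibits growth by half. TGI denotes the concentration required for complete inhibition of growth.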

Some test systems named below: MDA-N; DLD-1 colon; HOP-18 NSCLC; M19-MEL melanoma; XF 498 CNS; DMS 273 small cell lung; SNB-78 CNS; DMS 114 small cell lung; SN12K1 renal; P388 leukemia; P388/ADR leukemia; RXF-631 renal.
Holding throughout (experiment): NCI tumour cell line growth inhibition, 48 h

`CN1C(=O)C2(c3ccccc31)C1CC3C(CO1)C1C2C3(CO)CN1C#N` (centres undefined) registered a TGI in the test with MDA-N above 100 µM.
With `CC[PH+](CC)CC.CC[PH+](CC)CC.[Au]`, the GI50 in the test with DLD-1 colon was 5.52 µM; with HOP-18 NSCLC, 8 µM; with M19-MEL melanoma it was 4.06 µM; in the test on XF 498 CNS, 11 µM; in the test with DMS 273 small cell lung, 17 µM; in the test with SNB-78 CNS, 6.82 µM. Moreover, the TGI with DLD-1 colon was determined as 18.9 µM; in the test on HOP-18 NSCLC it was 22.1 µM; with M19-MEL melanoma, 31.9 µM; in the test with XF 498 CNS it was 26.4 µM; in the test with DMS 273 small cell lung, 38.3 µM; in the test with SNB-78 CNS, 53.1 µM.
In the test with MDA-N, `COc1ccc(OC)c(/C=C/c2ccnc3ccccc23)c1` gave a TGI of 0.286 µM.
On the same count and under the same terms, next, `C=C1C(=O)C2=CC1CCC(=O)C1(C)CCC(OC(C)=O)C(C)(C)C1CC2O` (centres undefined): 4.41 µM.
The compound `O=c1cccc2n1CC1CNC[C@H]2C1` had a TGI in the test with MDA-N above 100 µM.
As to `CN(C)c1ccccc1[CH2][Ga]([Cl])[CH2]c1ccccc1N(C)C`, in the test on MDA-N, the GI50 was 1.66 µM and the TGI amounted to 3.08 µM.
For `O=[N+]([O-])c1oc2ccc3ccccc3c2c1CCO`, the TGI in the test with MDA-N is 4.07 µM.
On to `O=C(O)Cc1ccc(N=Nc2c(O)c(C(=O)O)cc3ccccc23)cc1`, for which, in the test with MDA-N, the TGI is above 100 µM.
As to `COC(=O)C1[C@H](c2ccc3c(c2)OCO3)OC(=O)[C@]1(C(=O)OC)C(=O)c1ccc(OC)c(OC)c1` (some centres undefined), the TGI with DLD-1 colon was 40.1 µM; with HOP-18 NSCLC, above 100 µM; in the test on M19-MEL melanoma, above 100 µM; with XF 498 CNS, above 100 µM; in the test on DMS 273 small cell lung it was 71.6 µM; in the test on SNB-78 CNS it was above 100 µM.
In the test with MDA-N, `CC1(C)CCC(C)(C)c2cc(NC(=O)c3ccc(C(=O)O)cc3)ccc21` showed a TGI above 100 µM.
In the case of `c1ccc2c(CNCCCCCCCCNCc3cccc4ccccc34)cccc2c1`, the TGI turned out to be 4.07 µM in the test on DLD-1 colon; 3.48 µM with DMS 114 small cell lung; 18.5 µM with HOP-18 NSCLC; 3.12 µM in the test with M19-MEL melanoma; 3.24 µM in the test with XF 498 CNS; 3.68 µM in the test on DMS 273 small cell lung. Besides, the TGI in the test on SNB-78 CNS amounted to 4.45 µM.
Regarding `CCC1(c2ccc(N)cc2)CCC(=O)NC1=O` (centres undefined), the TGI was above 5000 µM in the test with DLD-1 colon; above 5000 µM in the test on SN12K1 renal; above 4320 µM with DMS 114 small cell lung; above 4910 µM in the test with HOP-18 NSCLC; above 5000 µM with P388 leukemia; above 2810 µM in the test on P388/ADR leukemia. In addition, the TGI with M19-MEL melanoma is above 4740 µM; in the test with XF 498 CNS it was 4260 µM; with DMS 273 small cell lung it was above 5000 µM; in the test with MDA-N, above 5000 µM; in the test with SNB-78 CNS it was 4970 µM.
`O=[N+]([O-])C=C1c2ccccc2-c2ccccc21`: the TGI in the test with DLD-1 colon amounted to 7.71 µM; in the test on SNB-78 CNS, 31.1 µM.
Regarding `N#CCc1nnc(N)o1`, the TGI in the test on DLD-1 colon, in the test on RXF-631 renal, in the test on M19-MEL melanoma, in the test with XF 498 CNS, with DMS 273 small cell lung and in the test on SNB-78 CNS was above 100 µM in each case.
With `Cc1ccc(C2=Nc3ccccc3S(=O)C(c3ccc4c(c3)OCO4)C2)cc1` (centres undefined), the TGI in the test with DLD-1 colon is 30.7 µM; with HOP-18 NSCLC, above 100 µM; with M19-MEL melanoma, above 100 µM; in the test with XF 498 CNS, 36.1 µM; with DMS 273 small cell lung, above 100 µM; with SNB-78 CNS it was 86.9 µM.
Regarding `C=C1CC2(CCS(=O)(=O)c3ccccc32)OC1=O` (centres undefined), the TGI in the test with DLD-1 colon was 25.9 µM; with DMS 114 small cell lung, 14.2 µM; with RXF-631 renal it was 43.4 µM; in the test with HOP-18 NSCLC it was 14.7 µM; with M19-MEL melanoma, 37.2 µM; with XF 498 CNS, 26.1 µM. In addition, the TGI is 30.5 µM with DMS 273 small cell lung and 33.6 µM in the test with SNB-78 CNS.
In the case of `COc1cc(O)c2c(c1)C(=O)C1=C(C2=O)C(O)C[C@@](C)(O)C1` (some centres undefined), the TGI in the test on DLD-1 colon was 2.28 µM; in the test on DMS 114 small cell lung, 3.26 µM; in the test with M19-MEL melanoma it was 1.66 µM; in the test with XF 498 CNS it was 3.46 µM; with DMS 273 small cell lung, 5.04 µM; in the test with SNB-78 CNS, 4.67 µM.
Turning to `Cc1ccc(C(=O)NCCN(C)C)c2nc3ccccc3cc12`, the TGI is above 100 µM in the test with DLD-1 colon; above 100 µM with DMS 114 small cell lung; 12 µM in the test on RXF-631 renal; 9.89 µM in the test with HOP-18 NSCLC; above 100 µM with M19-MEL melanoma; 3.95 µM in the test on XF 498 CNS. Further, the TGI is 2 µM in the test with DMS 273 small cell lung and above 100 µM in the test with SNB-78 CNS.
On to `CCCCCCCCCCOC(=O)NCCC`, for which the TGI was above 100 µM in the test with DLD-1 colon; above 100 µM in the test on RXF-631 renal; above 100 µM in the test with HOP-18 NSCLC; above 100 µM in the test with M19-MEL melanoma; 43.6 µM in the test on XF 498 CNS; 54.9 µM with DMS 273 small cell lung.
Regarding `O=C1CC(CC(OCc2ccccc2)C(OCc2ccccc2)C(COCc2ccccc2)OCc2ccccc2)CC(=O)N1` (centres undefined), in the test on MDA-N, the GI50 was > 100 µM and 12.5 µM; the TGI was > 100 µM and 27.7 µM.
As for `O=C(O)c1c2c(cc3c(=O)cc(-c4ccccc4)oc13)CCCC2`, the TGI in the test on DLD-1 colon, in the test with RXF-631 renal, in the test with XF 498 CNS, with DMS 273 small cell lung and with SNB-78 CNS was above 100 µM in each case.
As for `O=C(O)CN(c1ccc(F)cc1)S(=O)(=O)c1ccccc1`, the TGI in the test with DLD-1 colon, with RXF-631 renal, in the test with HOP-18 NSCLC, in the test on M19-MEL melanoma, in the test on XF 498 CNS and in the test on DMS 273 small cell lung was above 100 µM each time.
For the compound `COC12OCCN(C)C1=CC(=O)C1(C)N=NCC12` (centres undefined), the TGI with DLD-1 colon, in the test on DMS 114 small cell lung, in the test with HOP-18 NSCLC, with M19-MEL melanoma, in the test on DMS 273 small cell lung and in the test with SNB-78 CNS was above 100 µM throughout.
For the compound `CN1CCN(CCCN2c3ccccc3Sc3ccc(Cl)cc32)CC1`, in the test on MDA-N, the GI50 was 42.1 µM and the TGI is 61.4 µM.
Regarding `CCOC(=O)CN(c1ccccc1)c1nc(=[N+](C)C)ss1`, the TGI in the test on DLD-1 colon was above 100 µM; in the test with DMS 114 small cell lung it was 27.7 µM; in the test with HOP-18 NSCLC it was above 100 µM; in the test with M19-MEL melanoma, 34 µM; with DMS 273 small cell lung it was 33.8 µM; with SNB-78 CNS, above 100 µM.
As for `CC(C)=NNC(=S)NC12CC3CC(CC(C3)C1)C2`, the TGI in the test with RXF-631 renal, in the test on M19-MEL melanoma, in the test on XF 498 CNS, in the test on DMS 273 small cell lung and in the test with SNB-78 CNS was above 100 µM each time.
